Assay results taken from PMC5628141 (Molecular cancer therapeutics, 2017).

Target: T1, androgen receptor DNA binding domain (AR-DBD) (Rattus norvegicus, UniProt P15207, C552A)
T1 sequence (P15207 550-637 C552A): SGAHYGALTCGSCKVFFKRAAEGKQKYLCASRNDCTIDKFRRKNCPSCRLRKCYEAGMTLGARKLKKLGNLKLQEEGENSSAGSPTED
Experiment: isothermal titration calorimetry

Kd: ~64 µM
Structure (SMILES): Brc1cn(-c2csc(N3CCOCC3)n2)c(Br)n1 [VPC-14449, 4-(4-(2,4-bromo-1H-imidazol-1-yl)thiazol-2-yl)morpholine]
